What was measured:
Butyrylcholinesterase = Butyrylcholinesterase (Equus caballus, UniProt Q9N1N9)
Description: Inhibition of Equine Butyrylcholinesterase

Acetylcholinesterase [1] = target: T1, Acetylcholinesterase (Bos taurus, UniProt P23795)
T1 sequence (P23795 whole entry): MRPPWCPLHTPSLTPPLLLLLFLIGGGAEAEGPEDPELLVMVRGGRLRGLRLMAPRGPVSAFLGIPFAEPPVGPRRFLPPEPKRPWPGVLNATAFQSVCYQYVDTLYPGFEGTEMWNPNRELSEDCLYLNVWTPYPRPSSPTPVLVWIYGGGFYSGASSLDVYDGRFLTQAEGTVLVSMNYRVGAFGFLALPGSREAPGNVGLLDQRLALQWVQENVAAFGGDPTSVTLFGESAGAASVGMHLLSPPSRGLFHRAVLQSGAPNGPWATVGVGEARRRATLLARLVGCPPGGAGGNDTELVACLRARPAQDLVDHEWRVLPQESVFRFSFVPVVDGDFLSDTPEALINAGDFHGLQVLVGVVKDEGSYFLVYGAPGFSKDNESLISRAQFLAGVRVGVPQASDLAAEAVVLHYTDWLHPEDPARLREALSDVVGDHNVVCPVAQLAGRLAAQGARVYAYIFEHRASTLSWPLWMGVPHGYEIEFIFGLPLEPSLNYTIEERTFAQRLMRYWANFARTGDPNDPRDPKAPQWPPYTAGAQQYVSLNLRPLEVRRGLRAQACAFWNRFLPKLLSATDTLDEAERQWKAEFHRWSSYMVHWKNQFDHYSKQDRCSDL
Description: Inhibition of fetal Bovine serum AChE

Acetylcholinesterase [2] = target: Acetylcholinesterase (Homo sapiens, UniProt P22303); test: Inhibitory activity against human AChE
Sequence of Acetylcholinesterase (Homo sapiens, UniProt P22303) (P22303 whole entry): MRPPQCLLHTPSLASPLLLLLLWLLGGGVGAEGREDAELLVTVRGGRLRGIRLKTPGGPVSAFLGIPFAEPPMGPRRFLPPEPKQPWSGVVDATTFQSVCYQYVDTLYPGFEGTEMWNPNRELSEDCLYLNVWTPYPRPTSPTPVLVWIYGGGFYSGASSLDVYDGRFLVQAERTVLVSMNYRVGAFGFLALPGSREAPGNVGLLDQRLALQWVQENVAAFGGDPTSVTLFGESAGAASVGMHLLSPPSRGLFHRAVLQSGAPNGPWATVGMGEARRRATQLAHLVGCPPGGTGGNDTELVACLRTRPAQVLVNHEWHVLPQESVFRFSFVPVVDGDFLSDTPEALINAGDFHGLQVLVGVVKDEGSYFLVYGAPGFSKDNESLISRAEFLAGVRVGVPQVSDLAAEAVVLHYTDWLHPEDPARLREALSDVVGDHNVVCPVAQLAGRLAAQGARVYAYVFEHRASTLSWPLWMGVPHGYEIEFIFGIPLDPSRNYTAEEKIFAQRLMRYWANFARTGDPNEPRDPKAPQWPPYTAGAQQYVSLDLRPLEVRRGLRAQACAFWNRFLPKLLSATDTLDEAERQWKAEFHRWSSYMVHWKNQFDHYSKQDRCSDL

Sequence of Butyrylcholinesterase (Q9N1N9 whole entry): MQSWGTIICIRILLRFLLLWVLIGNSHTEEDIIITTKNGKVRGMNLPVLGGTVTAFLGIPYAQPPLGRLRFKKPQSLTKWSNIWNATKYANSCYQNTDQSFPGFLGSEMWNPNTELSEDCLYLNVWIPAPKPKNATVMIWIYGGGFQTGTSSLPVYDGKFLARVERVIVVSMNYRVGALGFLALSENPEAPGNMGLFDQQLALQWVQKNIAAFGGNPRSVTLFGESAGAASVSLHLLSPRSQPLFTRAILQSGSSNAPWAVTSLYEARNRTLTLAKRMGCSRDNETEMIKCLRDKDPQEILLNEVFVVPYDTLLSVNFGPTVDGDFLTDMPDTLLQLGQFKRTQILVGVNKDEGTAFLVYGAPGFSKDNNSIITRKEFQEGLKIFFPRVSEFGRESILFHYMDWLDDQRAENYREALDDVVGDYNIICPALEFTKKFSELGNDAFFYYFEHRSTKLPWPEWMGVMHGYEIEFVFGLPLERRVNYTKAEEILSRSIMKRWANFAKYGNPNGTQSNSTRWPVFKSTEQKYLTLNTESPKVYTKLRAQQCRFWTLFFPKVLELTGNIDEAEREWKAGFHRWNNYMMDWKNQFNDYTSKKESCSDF

Row | Compound | Ki (Butyrylcholinesterase) | Ki (Acetylcholinesterase [1]) | Ki (Acetylcholinesterase [2])
1 | c1ccc2c(NCCCCCCCCSc3c4c(nc5ccccc35)CCCC4)c3c(nc2c1)CCCC3 | 0.4 nM | 250 nM | –
2 | c1ccc2c(NCCCCCSc3c4c(nc5ccccc35)CCCC4)c3c(nc2c1)CCCC3 | 10 nM | 210 nM | –
3 | CN(CCCNc1c2c(nc3ccccc13)CCCC2)CCCNc1c2c(nc3cc(Cl)cc(Cl)c13)CCCC2 | 11 nM | 3.7 nM | –
4 | CC(=O)N(CCCNc1c2c(nc3ccccc13)CCCC2)CCCNc1c2c(nc3ccccc13)CCCC2 | 2 nM | 1500 nM | –
5 | CN(CCCNc1c2c(nc3ccccc13)CCCC2)CCCNc1c2c(nc3ccccc13)CCCC2 | 6 nM | 0.06 nM | –
6 | CCC1=CC2Cc3nc4cc(Cl)ccc4c(N)c3[C@@H](C1)C2 [HUPRINE X] | – | – | 0.026 nM

Source: ChEMBL document CHEMBL1145007 (J Med Chem, 2003)
